# Measurements published in the supplement of paper PMC10307832.
# Tests used:
# Test in all cases: relative viability (nuclei count vs DMSO), 5 days (fraction); higher = more cells survive
# BMX-IN-1 + Crizotinib = compound: C=CC(=O)Nc1cc(-n2c(=O)ccc3cnc4ccc(-c5ccc(NS(C)(=O)=O)cc5)cc4c32)ccc1C [BMX-IN-1] + C[C@@H](Oc1cc(-c2cnn(C3CCNCC3)c2)cnc1N)c1c(Cl)ccc(F)c1Cl [Crizotinib] (partner 1 µM)
# Procedure, shortened: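 Relative viability divides the nuclei count in treated wells by that in vehicle wells. Lung cancer cell lines were seeded in 1536-well plates, dosed by pin tool the next day, and fixed and stained after 5 days in one step with final 0.05% Triton X-100, 1% formaldehyde and 1 ug/ml Hoechst. Dosing was a single drug or a fixed anchor-drug dose plus five library-drug doses (not always all listed) in √10 steps, and values are medians of duplicate plates imaged at 4×.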
# BMX-IN-1 = compound: C=CC(=O)Nc1cc(-n2c(=O)ccc3cnc4ccc(-c5ccc(NS(C)(=O)=O)cc5)cc4c32)ccc1C [BMX-IN-1]
# Procedure, shortened: (§1)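 Only plates meeting two conditions passed: control CV below 25% and at least one doubling. Lung cancer cell lines, kept overnight at 37 °C in 1536-well plates, were pinned with five library-drug doses (not always all listed) √10 apart on vehicle-anchored plates and grown 5 days without medium change. A one-step fix, permeabilisation and Hoechst stain preceded 4× imaging and MetaXpress nuclear counting. Viability equals treated-well nuclei divided by vehicle-well nuclei, as the median over plates.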
# PAC-1 = compound: C=CCc1cccc(/C=N/NC(=O)CN2CCN(Cc3ccccc3)CC2)c1O [PAC-1]
# Procedure, shortened: as §1
# Ibrutinib = compound: C=CC(=O)N1CCC[C@@H](n2nc(-c3ccc(Oc4ccccc4)cc3)c3c(N)ncnc32)C1 [Ibrutinib]
# Procedure, shortened: as §1
Cell Line,relative viability (BMX-IN-1 + Crizotinib; first compound 0.02 µM),relative viability (BMX-IN-1 + Crizotinib; first compound 0.2 µM),relative viability (BMX-IN-1 + Crizotinib; first compound 0.6325 µM),relative viability (BMX-IN-1 + Crizotinib; first compound 2 µM),relative viability (BMX-IN-1; 0.02 µM),relative viability (BMX-IN-1; 0.2 µM),relative viability (BMX-IN-1; 0.6325 µM),relative viability (BMX-IN-1; 2 µM),relative viability (PAC-1; 0.02 µM),relative viability (PAC-1; 0.06325 µM),relative viability (PAC-1; 0.2 µM),relative viability (PAC-1; 2 µM),relative viability (Ibrutinib; 0.005 µM),relative viability (Ibrutinib; 0.01581 µM),relative viability (Ibrutinib; 0.05 µM),relative viability (Ibrutinib; 0.1581 µM),relative viability (Ibrutinib; 0.5 µM)
NCI-H23,0.501,0.538,0.419,0.5,0.963,1.1,1.16,1.09,0.845,1.03,0.921,1.13,0.829,0.897,0.912,0.761,0.977
NCI-H1703,0.821,0.952,0.631,0.56,1.1,0.914,0.862,0.805,0.993,0.903,0.955,0.962,–,0.864,0.916,0.879,0.769
IA-LM,0.875,0.865,0.99,0.772,1,0.997,1.04,1.02,1.09,1.05,0.89,1.03,0.794,1,1.06,1.05,1.04
CAL-12T,0.798,0.827,0.618,0.562,1.08,0.995,1.03,0.989,1.02,1.11,0.984,0.947,0.824,0.907,0.902,0.932,0.678
LCLC-97TM1,0.343,0.429,0.363,0.387,1.04,1.11,1.12,1.02,0.897,1.16,0.807,0.937,1.11,0.888,0.906,0.85,0.909
NCI-H661,–,0.96,1.14,0.976,0.967,1.03,1.01,0.933,0.977,0.981,0.965,0.959,0.95,0.957,0.868,0.96,0.601
NCI-H1944,1.21,1.28,1.21,1.07,1.07,1.08,1.18,0.947,0.964,0.947,0.902,1.02,0.887,0.851,0.858,0.772,0.832
NCI-H1915,1.28,0.964,0.946,0.977,1.08,1.06,1.07,1.08,0.955,0.981,0.934,1.07,0.96,0.971,1.01,0.978,1.05
BEN,1.25,1.05,0.537,0.901,1.17,1.27,0.861,1.01,0.987,0.901,0.912,1.04,–,0.925,0.843,0.718,0.997
H3255,0.969,1.11,0.968,0.924,1.08,0.974,1.12,1.02,1.07,1.01,0.942,0.909,0.912,0.858,0.745,0.945,0.547
NCI-H1437,1.3,1.01,1.1,1.07,1.11,0.984,1.03,1.03,0.988,1.01,0.96,0.814,0.957,0.975,0.981,0.974,1.02
ChaGo-K-1,1.39,1.07,1.18,1.17,1.14,1.05,0.963,1.02,1.05,1.01,1,0.929,0.953,0.95,0.958,0.913,1.02
NCI-H1755,1.01,1.07,0.958,0.843,1.01,1.1,1.08,0.984,1.02,0.958,0.963,0.995,0.988,1.03,1.02,0.994,0.969
SK-LU-1,1.02,0.906,0.868,0.904,1.22,1.23,1.16,1.1,1,1.02,0.975,0.999,0.944,0.954,0.987,1.02,–
HOP-62,0.76,1.04,0.98,0.959,1.1,1.08,1.08,1.06,1.05,1,0.996,1.07,1.02,0.964,0.994,0.949,1.14
NCI-H2228,0.52,0.354,0.417,0.495,1.2,1.18,0.975,1.05,0.98,1.15,0.924,1.09,1.01,0.752,1.1,0.872,0.868
SW 1573,0.869,0.97,0.879,0.767,1.13,1.08,1.09,0.904,0.965,1.03,1.01,1.15,0.912,0.924,–,0.94,0.974
PC-14,0.909,1.07,0.964,0.987,1.12,1.06,1.22,1,1.03,1.03,0.995,0.988,1.08,0.918,0.952,1.02,0.571
EMC-BAC-2,0.858,0.877,0.797,0.718,1,1.13,1.07,0.95,0.998,1.02,1.09,0.97,0.897,1.01,0.739,–,0.96

Cell Line,relative viability (BMX-IN-1 + Crizotinib; first compound 0.02 µM),relative viability (BMX-IN-1 + Crizotinib; first compound 0.2 µM),relative viability (BMX-IN-1 + Crizotinib; first compound 0.6325 µM),relative viability (BMX-IN-1 + Crizotinib; first compound 2 µM),relative viability (BMX-IN-1; 0.02 µM),relative viability (BMX-IN-1; 0.2 µM),relative viability (BMX-IN-1; 0.6325 µM),relative viability (BMX-IN-1; 2 µM),relative viability (PAC-1; 0.02 µM),relative viability (PAC-1; 0.06325 µM),relative viability (PAC-1; 0.2 µM),relative viability (PAC-1; 2 µM),relative viability (Ibrutinib; 0.005 µM),relative viability (Ibrutinib; 0.01581 µM),relative viability (Ibrutinib; 0.05 µM),relative viability (Ibrutinib; 0.1581 µM),relative viability (Ibrutinib; 0.5 µM)
NCI-H520,1.37,1.08,0.79,0.795,1.26,1.02,1.1,1.04,0.964,0.957,0.899,0.99,0.874,0.791,0.991,1,0.839
NCI-H2170,1.5,1.27,1.1,1.38,1.14,1.05,1.05,1.02,1.02,0.978,0.99,0.962,0.678,0.85,0.803,0.939,0.462
A-427,0.966,0.903,1.09,0.887,1.08,1.12,1.17,1.03,1.01,1.04,0.976,0.97,0.9,0.969,0.953,0.951,0.98
ABC-1,1.22,1.27,0.69,0.904,1.05,1.02,1.01,1.05,0.992,0.952,0.975,0.887,0.907,0.761,0.887,0.744,0.94
LC-2-ad,0.374,0.518,0.484,0.494,1.1,1.05,1.08,1.02,1.01,1.04,1.01,0.974,0.996,0.973,0.941,0.905,0.995
NCI-H727,1.15,1.12,1.01,0.846,1,1.14,0.964,0.94,0.968,1.15,0.944,0.916,0.857,0.912,0.902,0.61,–
COR-L23,0.942,0.641,0.864,0.767,1.35,1.16,1.17,1.07,1.09,1,0.9,1,1.09,0.967,1.03,1.03,1.18
NCI-H3122,0.3,0.27,0.271,0.3,1.07,1.06,1.04,1.04,0.991,0.989,0.965,0.965,1.05,0.989,0.996,0.895,1
NCI-H322M,1.02,1.05,0.982,0.887,1.07,0.905,0.967,0.943,0.833,0.897,1.05,0.884,0.801,0.811,0.843,0.666,0.671
HCC-44,0.907,0.834,0.944,0.889,1.03,1.06,1.13,0.998,0.99,1.05,0.997,0.981,1.04,0.995,0.994,1.02,1.04
NCI-H441,0.861,0.936,0.884,0.787,1.19,1.31,1.28,1.17,1.03,1.09,0.997,1.04,1.11,0.947,1.26,1.16,1.13
NCI-H2347,0.735,0.678,0.675,0.624,1.04,0.967,1.14,1.09,1.01,1.02,0.979,1.05,1.01,1.06,1.02,0.812,1.04
HCC-827,0.972,0.939,0.939,0.97,1.05,1.06,1.09,1.04,1.08,1.04,1.07,1.03,–,1.01,1.08,1.02,0.868
LOU-NH91,–,0.764,0.752,0.731,–,0.973,1.08,0.989,0.891,0.959,0.917,0.972,0.801,0.926,0.848,0.884,0.678
NCI-H1651,0.976,1.01,0.907,0.862,1.11,1.08,1.07,0.991,0.978,0.967,0.943,0.983,0.931,0.93,0.913,0.923,1.03
NCI-H1792,0.886,1.7,0.855,0.977,1.03,1.2,1.5,0.991,0.951,0.991,0.996,0.95,–,1.06,0.925,0.567,0.762
PC-3 [JPC-3],1.34,1.03,1.03,0.99,1.08,1.12,1.11,1.06,1.06,1.08,1.05,1.03,1.03,0.97,0.906,0.912,0.638
NCI-H596,1.13,1.18,1.03,0.827,1.12,0.951,1.02,0.96,1,0.937,1.07,1.05,0.74,0.965,0.939,0.837,0.858
NCI-H838,1.14,0.983,0.834,0.877,1.25,0.957,1.02,0.989,0.96,0.989,0.9,0.983,0.923,0.893,0.986,0.938,0.948
